# Measurements as given in PMC4240011 (Drug delivery and translational research, 2014).
# Experiments:
# [1] = Equilibrium solubility in SMEDDS formulation; format: physicochemical; details: in SMEDDS (Cremophor EL, Carbitol, Captex 355); room temperature overnight
# [2] = cited from earlier work
# [3] = cited from earlier work; remark: listed apart in the source
# [4] = test system: UGT (curcumin glucuronidation, mouse liver microsomes); test: Inhibition of curcumin glucuronidation in mouse liver microsomes; format: biochemical; details: inhibitor up to 10 μM, curcumin 1 μM
# [5] = Oral pharmacokinetic studies in mice; format: in vivo, mouse; details: silibinin 100 mg/kg with curcumin 100 mg/kg in SMEDDS
Solubility [1] [mg/g],Compound,effect on curcumin glucuronidation / UGT activity (in words) [4],also measured
51.5,COc1cc(/C=C/C(=O)CC(=O)/C=C/c2ccc(O)c(OC)c2)ccc1O [Curcumin],,bioavailability [2]: < 2%; solubility in water [3]: ~ 2 ng/mL
,"O=C(O[C@@H]1Cc2c(O)cc(O)cc2O[C@@H]1c1cc(O)c(O)c(O)c1)c1cc(O)c(O)c(O)c1 [EGCG, epigallocatechin gallate]",slightly increased UGT activity,
45.2,"O=C(/C=C/C=C/c1ccc2c(c1)OCO2)N1CCCCC1 [Piperine, piperine]",no inhibitory effect,
34.4,"O=c1c(O)c(-c2ccc(O)c(O)c2)oc2cc(O)cc(O)c12 [Quercetin, quercetin]",,
32.8,"COc1cc(C2Oc3cc([C@H]4Oc5cc(O)cc(O)c5C(=O)[C@@H]4O)ccc3OC2CO)ccc1O (stereo partly shown) [Silibinin, silibinin]",,time of peak silibinin plasma concentration [5]: 30 min
,O=C(O)c1ccccc1O [salicylic acid],slightly increased UGT activity,
